Patent publication US12227713B2, “Polysiloxane hydraulic fluids” (THE BOEING COMPANY, priority 2016, dated 2025)

Assay: Viscosity (ASTM D445)
Assay type: physicochemical
From the text: The viscosity may be determined using the protocol in ASTM D445, and for example ASTM D445FL1 for low temperature measurements.

SMILES | 38 C. Viscosity (cP) | Room Temp (25 C.) Viscosity (cP) | −54 C. Viscosity (cP)
CCCCCCCCCCP(=O)(OCC)OCC [DiEthyl Decane Phosphonate (AP28), DiEthyl Decane Phosphonate] | 4.89 ± 0.01 | 7.02 ± 0.04 | Frozen <3 hr
CCCCCCCCCCP(=O)(OCCCC)OCCCC [DiButyl Decane Phosphonate (AP32), DiButyl Decane Phosphonate] | 4.91 ± 0.01 | 6.97 ± 001 | 706.2 ± 5.4 cP
